Legend:
hepatocyte AML12 cells = assay: NADH dose-response and time course of NAD+ levels in AML12 cells; format: cell-based
Description: Also, cells were cultured as follows.
A dose-response curve was also determined for hepatocyte AML12 cells. These cells were treated with rising concentrations of NADH for 3 h. […] (n=3). *, p<0.01; **, p<0.001 vs Control.
Time course studies for NADH action were also carried out. AML12 cells were incubated with NADH for various incubation times (0-12 hr) and then harvested, and the NAD+ levels were assessed. […] (n=3). *, p<0.01; **, p<0.001 vs Control.

[1] = test system: C2C12, Neuro2a and AML12 cells; assay: Toxicity: total cell number / trypan blue count after 24 h; format: cell-based; conditions: 1 mM
Description: The sharp increase of NAD+ concentration indicates a possible toxicity to cells. To assess this toxicity, C2C12, Neuro2a and AML12 cells were treated with 1 mM NADH for 24 hours, and then the total cell numbers were measured. […] The cells were stained with trypan blue and then counted with a hemocytometer. […] The Annexin V/PI staining kit and Caspases3/7/SYTOX dead cell staining kit (Life Technologies) were used and cells were counted with a BD FACSCelesta™ flow cytometer. The quadrants of apoptotic cells, necrotic cells and living cells were identified and quantified according to the manufacturer's instructions.
To examine apoptotic markers, AML12 cells were stained for Annexin V and Caspase 3/7, and cells were counted with a flow cytometer. […] Quadrants with live cells (brown), necrotic cells (gray) and apoptotic cells (blue) were quantified.

male C57BL/6J mice [2] = assay: Tissue NAD+ content after intraperitoneal injection; format: in vivo; conditions: 4 hours
Description: In the below in vivo assays, C57BL/6J male mice (The Jackson Laboratory) (40 days of age) were used. They were kept under standard laboratory conditions with a temperature of 22±1° C., dark/light cycles of 12/12 h, and relative humidity of 55±5%. All animals had free access to food and water, except for indicated fasting periods (and where not indicated for fasting periods of 2 hours before administration).
[…] Specifically, ten 8-week-old male C57BL/6J mice (The Jackson Laboratory) were kept in polycarbonate cages under a 12-h light/dark cycle with free access to food and water. […] Four hours later, the blood samples were collected by cardiac puncture and the mice were executed. Liver, brain, muscle, and adipose tissues were collected, instantly frozen in liquid nitrogen, and then stored at −80° C. until performance of the NAD+ analyses. […] Four hours later, the mice were killed and tissue samples were collected. All animal studies were performed according to the Guidelines for the Care and Use of Experimental Animals. For this NAD+ assay, about 100 mg of frozen tissue was crushed in liquid nitrogen and ultrasonically homogenized in 7% perchloric acid, and then the solution was neutralized and subjected to the NAD+ determination described here.
Data are indicated as mean±SD.

male C57BL/6J mice [3] = assay: Liver NAD+/NADH ratio after ethanol administration; format: in vivo; conditions: 500 mg/kg intragastric 15 min before 8 ml/kg ethanol (40% w/v)
Description: The ratio of NAD^+/NADH in the liver was then measured at different times after ethanol administration. The NAD^+/NADH ratios were detected using a NAD+/NADH Quantification Colorimetric Kit (ABIN411692) in compliance with the manufacturer's instructions. Fresh tissue lysate was prepared from snap cryo-frozen liver samples stored in […], and 20 mg liver was homogenized with NAD^+/NADH extraction buffer (400 μL). In order to quickly remove enzymes that may consume NADH, the samples were filtered through a 10 kD molecular weight cut-off filter before detection. […] Concentrations were calculated using an NADH standard curve.

male C57BL/6J mice [4] = assay: Liver triglyceride and serum VLDL (lipid metabolism); format: in vivo; conditions: 500 mg/kg intragastric 15 min prior to 8 ml/kg ethanol
Description: Liver samples were prepared with homogenization in cold isotonic saline. The homogenate (10%, w/v) was centrifuged at 4500 g for 10 minutes and the supernatant was used for biochemical analysis. The MDA, SOD and TG levels were determined with commercial kits (Abcam, #ab118970; Thermofisher, #EIASODC and Abcam, ab65336) according to the manufacturer's instructions. The results were normalized to the total protein determined by BCA Protein Assay Kit (Abcam, #ab102536) according to the manufacturer's instructions. […] Liver histopathology was detected by Oil Red 0 staining. According to the standard operating procedure, some liver tissues were fixed for histopathological assessment. The other part of the liver was stored at −80° C. […] frozen sections were stained with Oil Red 0 to detect liver steatosis. The stained sections were examined by a 400× optical microscope. The level of VLDL in serum samples was examined with a Bio-Tek synergy2 Multiscan Spectrum (Botten Instruments Co.). To evaluate alcoholic liver injury, the index of liver lipid metabolism (i.e., the triglyceride (TG) level in liver tissue) and the activity of serum Very Low Density Lipoprotein (VLDL) were also measured in the mice treated as described above in connection with FIG. 9A. […] The data in both FIGS. 9A and 9B are expressed as mean±SD (n=8); *p<0.01 vs control; #p<0.01 vs alcohol exposure.

male C57BL/6J mice [5] = assay: Loss of righting reflex (LORR) test; format: in vivo; conditions: 500 mg/kg intragastric 15 min prior to 8 ml/kg ethanol
Excerpt: Alcohol acts on the central nervous system, causing various behavioral and/or cognitive problems, e.g., loss of righting reflex (LORR). […] LORR is defined as the phenomenon that mice cannot correct themselves three times within 30 seconds after alcohol intake. LORR latency is defined as the time from drinking to occurrence of LORR, and LORR duration is defined as the time from occurrence to recovery of LORR.
Fisher's exact probability test was used to analyze the loss of righting reflex (LORR) in the mice. […] The data representing LORR latency and duration are expressed as mean±SD (n=10); *p<0.05 vs alcohol group.

[6] = test system: mammalian cell lines (insulinogenic (MING), neuronlike (LN229), muscle-like (C2C12), and normal hepatocyte (AML12) cells); assay: NAD+ levels in mammalian cell lines treated with NADH, NRH or NMN; conditions: 1 mM, 3 h; all cell lines
Description: Also, cells were cultured as follows. LN229, Neuro2a, and C2C12 cells were grown in Dulbecco's modified Eagle's medium (DMEM) supplemented with 10% fetal bovine serum (FBS), 100 units/ml penicillin, and 100 μg/ml streptomycin. […] AML12 cells were cultured in a 1:1 mixture of DMEM high glucose/Ham's F-12 with I-glutamine and supplemented with 10% FCS, 15 mM HEPES, 40 ng/ml dexamethasone, 0.005 mg/ml human recombinant insulin, 5 ng/ml sodium selenite and 0.005 mg/ml transferrin (Sigma Aldrich).
The cells were seeded in 6-well plates until they reached approximately 80% confluence. […] The number of cells was counted by hemocytometer and trypan blue. The harvested cells were then pelleted at 3000×g for 3 min. After eliminating the residual medium, the cells were lysed with 7% perchloric acid to preserve NAD+, and then neutralized with NaOH (2 M) and K2HPO4 (500 mM).

For NC(=O)C1=CN([C@@H]2O[C@H](COP(=O)(O)OP(=O)(O)OC[C@H]3O[C@@H](n4cnc5c(N)ncnc54)C(O)C3O)C(O)C2O)C=CC1 (stereo partly drawn) [NADH, nicotinamide adenine dinucleotide (NAD)+hydrogen (H)], the “concentration of NAD+ relative to the control group” value (hepatocyte AML12 cells; 50 μM NADH, 3 h) was “approximately 4 times”, the “concentration of NAD+ relative to the untreated control group (saturation)” value (hepatocyte AML12 cells; 500 μM NADH, 3 h) was 10 times and the “time after which full NAD+ increasing effects were present” value (hepatocyte AML12 cells; 1 mM NADH) was 3 h. For the same molecule, the “time at which NAD+ concentration-increasing effects appeared” value (hepatocyte AML12 cells; 1 mM NADH) was 0.5 h, the “NAD+ after 12 hours of treatment” value (hepatocyte AML12 cells; 1 mM NADH, 12 h) was “remained at a high concentration” and the “Trypan blue positive cells” value [1] was “less than 5%”. For the same molecule, the “loss of cultured cells (total cell number)” value [1] was “no obvious loss”, the “increase of the concentration of NAD+ in the liver” value (male C57BL/6J mice [2]; 250 mg/kg intraperitoneal) was 680% and the “NAD+-promoting effect in skeletal muscle” value (male C57BL/6J mice [2]; 1000 mg/kg intraperitoneal) was “lowest”. The “content of NAD+ in blood, brain and fat” value (male C57BL/6J mice [2]; 1000 mg/kg intraperitoneal) was “increased several times”, the “increase of NAD+ content in liver” value (male C57BL/6J mice [2]; 1000 mg/kg intraperitoneal) was “more than 7 times” and the “ethanol-induced decrease of liver NAD+/NADH redox ratio” value (male C57BL/6J mice [3]) was “significantly inhibited this decrease”. The “liver TG level vs alcohol exposure alone” value (male C57BL/6J mice [4]) was “decreased”, the “liver index vs alcohol exposure alone” value (male C57BL/6J mice [4]) was “decreased” and the “serum VLDL level vs alcohol exposure alone” value (male C57BL/6J mice [4]) was “decreased”. The “LORR duration relative to the model group” value (male C57BL/6J mice [5]) was “one third”, the “LORR duration vs model group” value (male C57BL/6J mice [5]) was “decrease” and the “LORR latency vs model group” value (male C57BL/6J mice [5]) was “prolonged”. For the same molecule, the “average LORR latency relative to the model group” value (male C57BL/6J mice [5]) was 4 times, the “share of mice that had a righting reflex after drinking alcohol” value (male C57BL/6J mice [5]) was “less than half” and the “LORR rate vs model group” value (male C57BL/6J mice [5]; model group 100%) was “decrease”. The “average LORR latency” value (male C57BL/6J mice [5]; model group 14.76 minutes) was 60.24 min, the LORR duration (male C57BL/6J mice [5]; model group about 798.68 minutes) was 265.00 min and the “induced NAD+ levels compared with NMN” value [6] was “much higher than those induced by NMN”.

— patent US11376271B1, “Methods of ameliorating the effects of alcoholic liver damage” (FULGENT LIFE INC., priority 2021, dated 2022)
